Data reported in paper PMC11121358, “Redox Properties of Bacillus subtilis Ferredoxin:NADP^+ Oxidoreductase: Potentiometric Characteristics and Reactions with Pro-Oxidant Xenobiotics” (International Journal of Molecular Sciences, 2024).

Biological target: T1, Bacillus subtilis ferredoxin:NADP^+ oxidoreductase (BsFNR) (Bacillus subtilis, UniProt O05268)
T1 construct: gene yumC
Test: steady-state product inhibition of NADPH:plumbagin reductase reaction
Format: biochemical

T1 sequence (O05268 whole entry): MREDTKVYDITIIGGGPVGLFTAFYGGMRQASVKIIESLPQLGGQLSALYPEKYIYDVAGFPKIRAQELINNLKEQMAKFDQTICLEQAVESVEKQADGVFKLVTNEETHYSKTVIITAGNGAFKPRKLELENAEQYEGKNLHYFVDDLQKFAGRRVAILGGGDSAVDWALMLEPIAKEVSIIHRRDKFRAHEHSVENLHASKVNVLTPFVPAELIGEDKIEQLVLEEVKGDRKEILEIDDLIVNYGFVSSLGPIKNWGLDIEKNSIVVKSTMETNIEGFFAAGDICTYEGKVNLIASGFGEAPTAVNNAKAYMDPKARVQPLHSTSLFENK

Ki: 62.6 ± 10.5 µM
SMILES: NC(=O)c1ccc[n+]([C@@H]2O[C@H](COP(=O)(O)OP(=O)(O)OC[C@H]3O[C@@H](n4cnc5c(N)ncnc54)[C@H](OP(=O)(O)O)[C@@H]3O)[C@@H](O)[C@H]2O)c1 [NADP^+]
